For this assay, the target named is T1, human CXCR3 (N-delta 4) (Homo sapiens, UniProt P49682).
T1 construct: CD8 leader; Flag tag; expressed in transfected cells; membranes used
T1 sequence (P49682 5-368 limits assumed): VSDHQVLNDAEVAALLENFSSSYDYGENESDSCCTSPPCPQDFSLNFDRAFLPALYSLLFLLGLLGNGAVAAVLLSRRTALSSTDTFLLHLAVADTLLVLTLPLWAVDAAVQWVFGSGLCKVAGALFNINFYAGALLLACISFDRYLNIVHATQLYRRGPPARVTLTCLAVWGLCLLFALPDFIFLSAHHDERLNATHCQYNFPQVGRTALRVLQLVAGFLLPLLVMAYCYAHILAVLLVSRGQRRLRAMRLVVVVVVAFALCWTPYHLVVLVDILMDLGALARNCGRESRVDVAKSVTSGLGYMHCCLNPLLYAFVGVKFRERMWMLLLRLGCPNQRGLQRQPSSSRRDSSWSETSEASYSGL
Briefly: Human CXCR3 (N-delta 4) scintillation proximity assay (SPA), [125I] IP-10 binding. The conditions noted are these: IC50 rating; Ba/F3-hCXCR3 (N-delta 4) membranes, 25 pM [125I] IP-10. Summed up:
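Membranes from mouse Ba/F3 pro-B cells stably expressing Flag-tagged human CXCR3 (N-delta 4) were coupled to SPA beads. IP-10 was added together with titrated compounds to start the reaction, and bound radioligand was read by scintillation proximity.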
On the technique in general: Scintillation proximity formats need no separation of bound from free tracer.

A value given as a limit tells only on which side of the number the result lay.

Consider `CC[C@H]1CN(c2ncc(CNC(=O)NC(C)(C)C)cc2Cl)CCN1C1CCN(Cc2ccc(Cl)cc2F)CC1` [compound 373], for which the IC50 (as a rule, the concentration that inhibits the measured activity by half) is less than 25 nM.
The result for `CC[C@H]1CN(c2ncc(CNC(=O)N(C)C)cc2Cl)CCN1C1CCN(Cc2ccc(Cl)cc2F)CC1` [compound 410] reads 25 to 100 nM.
Next, `C[C@H]1CN(c2ncc(C(=O)NCC3CCCCC3)cc2Cl)CCN1C1CCN(C(=O)c2ccc(C#N)cc2)CC1` [compound 335]: greater than 100 nM; `N#Cc1ccc(CN2CCC(N3CCN(c4ncc(C(=O)NCc5ccc(Br)cc5)cc4Cl)CC3)CC2)cc1` [compound 114]: 25 to 100 nM.
For `CC[C@H]1CN(c2ncc(C(=O)NCCO)cc2Cl)CCN1C1CCN(C(CO)c2ccc(Cl)cc2)CC1` (some centres unmarked) [compound 257], the IC50 is less than 25 nM.
Next, `CC(c1ccc([N+](=O)[O-])cc1)N1CCC(N2CCN(c3ncc(C(=O)NCc4ccc(F)c(F)c4)cc3Cl)CC2)CC1` (centres unmarked) [compound 76]: greater than 100 nM; `O=C(Nc1ccc(Cl)cn1)c1cnc(N2CCN(C3CCN(Cc4ccc(Cl)cc4)CC3)CC2)c(Cl)c1` [compound 353]: greater than 100 nM; `O=C(NCc1ccc(Br)cc1)c1cnc(N2CCN(C3CCN(Cc4ccc(Br)cc4F)CC3)CC2)c(Cl)c1` [compound 36]: greater than 100 nM.
The result for `CC[C@H]1CN(c2ncc(C(=O)NC)c(N)c2Cl)CCN1C1CCN(Cc2ccc(Cl)cc2F)CC1` [compound 316] reads 25 to 100 nM.
`CC[C@H]1CN(c2cc(N)c(C(N)=O)cc2Cl)CCN1C1CCN(Cc2ccc(Cl)cc2F)CC1` [compound 315] registered an IC50 of 25 to 100 nM.
The result for `CC[C@H]1CN(c2ncc(COC(=O)Nc3ccc(F)cc3)cc2Cl)CCN1C1CCN(Cc2ccc(Cl)cc2F)CC1` [compound 420] reads 25 to 100 nM; that for `O=C(NCc1ccc(F)c(Cl)c1)c1cnc(N2CCN(C3CCN(Cc4ccc(Cl)cc4)CC3)CC2)c(Cl)c1` [compound 150], 25 to 100 nM; that for `O=C(NCc1ccc(F)cc1F)c1cnc(N2CCN(C3CCN(Cc4ccc(Br)cc4F)CC3)CC2)c(Cl)c1` [compound 20], greater than 100 nM.
Next, `CC[C@H]1CN(c2ncc(C(=O)OC)cc2Cl)CCN1C1CCN(Cc2ccc(F)cc2C(F)(F)F)CC1` [compound 447]: greater than 100 nM; `N#Cc1ccc(C(=O)N2CCC(N3CCN(c4ncc(C(=O)NCCOc5ccccc5)cc4Cl)CC3)CC2)cc1` [compound 15]: greater than 100 nM.
Next, `CNC(=O)c1cnc(N2CCN(C3CCN(Cc4c(C)cccc4C)CC3)[C@@H](C)C2)c(Cl)c1` [compound 360]: greater than 100 nM.
Compound `CCNC(=O)c1cnc(N2CCN(C3CCN(C(C)c4ccc(Cl)cc4)CC3)[C@@H](C)C2)c(Cl)c1` (some centres unmarked) [compound 239] came in with an IC50 of less than 25 nM.
`O=C(NCc1cc(Cl)cc(Cl)c1)c1cnc(N2CCN(C3CCN(Cc4ccc([N+](=O)[O-])cc4)CC3)CC2)c(Cl)c1` [compound 89]: the IC50 was greater than 100 nM.
Next, `COc1ccc(CN2CCC(N3CCN(c4ncc(C(=O)NCc5ccc(F)c(F)c5)cc4Br)CC3)CC2)cc1` [compound 280]: 25 to 100 nM; `CNC(=O)c1cnc(N2CCN(C3CCN([C@H](C)c4ccc(Cl)cc4)CC3)[C@@H](C)C2)c(Cl)c1` [compound 232]: less than 25 nM; `O=C(NCc1ccc(C(F)(F)F)cc1)c1cnc(N2CCN(C3CCN(Cc4ccc(Cl)cc4)CC3)CC2)c(Cl)c1` [compound 85]: greater than 100 nM.
Next, `O=C(NCc1ccc(Cl)cc1)c1cnc(N2CCN(C3CCN(Cc4ccc(Br)cc4F)CC3)CC2)c(Cl)c1` [compound 48]: greater than 100 nM.
Next, `C[C@H]1CN(c2ncc(C(=O)NCc3ccc(Cl)c(Cl)c3)cc2Cl)CCN1C1CCN(C(=O)c2ccc(C#N)cc2)CC1` [compound 319]: 25 to 100 nM; `O=C(NCc1ccc(F)cc1)c1cnc(N2CCN(C3CCN(Cc4ccc(Cl)cc4)CC3)CC2)c(Cl)c1` [compound 297]: 25 to 100 nM.
For the compound `C[C@@H]1CN(c2ncc(C(=O)NCC3CCCCC3)cc2Cl)CCN1C1CCN(Cc2ccc(Cl)cc2)CC1` [compound 242], the IC50 was less than 25 nM.
The result for `CC[C@H]1CN(c2ncc(CO)cc2Cl)CCN1C1CCN(C(=O)c2ccc(Br)cc2)CC1` [compound 418] reads 25 to 100 nM; that for `O=C(NCc1cccc(F)c1)c1cnc(N2CCN(C3CCN(Cc4ccc(Cl)cc4)CC3)CC2)c(Cl)c1` [compound 95], 25 to 100 nM.
On to `O=C(NCc1ccc(F)cc1F)c1cnc(N2CCN(C3CCN(Cc4ccc(Cl)cc4Cl)CC3)CC2)c(Cl)c1` [compound 10], for which the IC50 is greater than 100 nM.
Next, `O=C(NCc1cccc(Cl)c1)c1cnc(N2CCN(C3CCN(Cc4ccc(Cl)cc4)CC3)CC2)c(Cl)c1` [compound 84]: greater than 100 nM.
The result for `CNC(=O)c1cnc(N2CCN(C3CCN(Cc4ccc(Cl)cc4)CC3)[C@@H](C)C2)c(Cl)c1` [compound 241] reads less than 25 nM; that for `CC[C@H]1CN(c2ncc(CN)cc2Cl)CCN1C1CCN(Cc2ccc(Cl)cc2)CC1` [compound 413], 25 to 100 nM; that for `CNC(=O)c1cnc(N2CCN(C3CCN(C(=N)c4ccc(Cl)cc4)CC3)[C@@H](C)C2)c(Cl)c1` [compound 292], 25 to 100 nM.
Next, `COc1ccc(CN2CCC(N3CCN(c4ncc(C(=O)NCc5ccc(Br)cc5)cc4Cl)CC3)CC2)cc1` [compound 137]: 25 to 100 nM.
Take `CCCCNC(=O)c1cnc(N2CCN(C3CCN(Cc4ccc(Cl)cc4)CC3)CC2)c(Cl)c1` [compound 177]: the IC50 is greater than 100 nM.
`CNC(=O)c1cnc(N2CCN(C3CCN(Cc4ccc(Br)cc4F)CC3)[C@@H](C)C2)c(Cl)c1` [compound 240] showed an IC50 of less than 25 nM.
Next, `CCNC(=O)c1cnc(N2CCN(C3CCN([C@@H](C)c4ccc(Cl)cc4)CC3)[C@@H](C)C2)c(Cl)c1` [compound 294]: 25 to 100 nM; `O=C(NCCOc1ccccc1)c1cnc(N2CCN(C3CCN(Cc4ccc(Cl)c(F)c4)CC3)CC2)c(Cl)c1` [compound 123]: 25 to 100 nM; `CCNC(=O)c1cnc(N2CCN(C3CCN(C(=O)c4ccc(Cl)cc4F)CC3)[C@@H](CC)C2)c(Cl)c1` [compound 260]: less than 25 nM.
Next, `O=C(NCc1cc(Cl)cc(Cl)c1)c1cnc(N2CCN(C3CCN(Cc4ccc(F)cc4F)CC3)CC2)c(Cl)c1` [compound 12]: greater than 100 nM.
The result for `N#Cc1ccc(C(=O)N2CCC(N3CCN(c4ncc(C(=O)NCc5ccc(F)cc5)cc4Cl)CC3)CC2)cc1` [compound 19] reads greater than 100 nM; that for `O=C(NCc1ccc(F)c(F)c1)c1cnc(N2CCN(C3CCN(Cc4ccccc4)CC3)CC2)c(Cl)c1` [compound 362], greater than 100 nM; that for `C[C@@H]1CN(C2CCN(Cc3ccc(C#N)cc3)CC2)CCN1c1ncc(C(=O)NCc2ccc(Cl)c(Cl)c2)cc1Cl` [compound 173], greater than 100 nM.
For `CC[C@H]1CN(c2ncc(CN)cc2Cl)CCN1C1CCN(Cc2ccc(Cl)cc2F)CC1` [compound 425], the IC50 is 25 to 100 nM.
The result for `CNC(=O)c1cnc(N2CCN(C3(C)CCN(Cc4ccc(Cl)cc4)CC3)[C@@H](C)C2)c(Cl)c1` [compound 205] reads greater than 100 nM; that for `CC[C@H]1CN(c2ncc(C(=O)NC)c3ccccc23)CCN1C1CCN(Cc2ccc(Cl)cc2F)CC1` [compound 363], greater than 100 nM.
The result for `CCNC(=O)NCc1cnc(N2CCN(C3CCN(Cc4ccc(Cl)cc4)CC3)[C@@H](CC)C2)c(Cl)c1` [compound 397] reads less than 25 nM; that for `O=C(NCc1ccc(F)cc1)c1cnc(N2CCN(C3CCN(Cc4ccc(F)cc4F)CC3)CC2)c(Cl)c1` [compound 34], greater than 100 nM.
The result for `O=C(NCc1ccc(Cl)c(Cl)c1)c1cnc(N2CCN(C3CCN(Cc4ccc(Br)cc4)CC3)CC2)c(Cl)c1` [compound 289] reads 25 to 100 nM; that for `CCNC(=O)c1cnc(N2C[C@H](CC)N(C3CCN(C(=O)c4ccc(Cl)cc4)CC3)C[C@H]2C)c(Cl)c1` [compound 256], less than 25 nM.
For the compound `O=C(NCCOc1ccccc1)c1cnc(N2CCN(C3CCN(Cc4ccc([N+](=O)[O-])cc4)CC3)CC2)c(Cl)c1` [compound 112], the IC50 was in the range of 25 to 100 nM.
In the case of `CC[C@H]1CN(c2ncc(C(=O)NCCN)cc2Cl)CCN1C1CCN(Cc2ccc(Cl)cc2F)CC1` [compound 306], the IC50 is 25 to 100 nM.
Next, `CC1CN(c2ncc(C(=O)NCc3ccc(F)c(F)c3)cc2Cl)CCN1C1CCN(Cc2ccc(Cl)cc2)CC1` (centres unmarked) [compound 188]: 25 to 100 nM; `CC1CN(c2ncc(C(=O)NCc3ccc(Cl)c(Cl)c3)cc2Cl)CCN1C1CCN(Cc2ccc(Cl)cc2)CC1` (centres unmarked) [compound 185]: less than 25 nM.
`O=C(NCC(c1ccccc1)c1ccccc1)c1cnc(N2CCN(C3CCN(Cc4ccc(Cl)cc4)CC3)CC2)c(Br)c1` [compound 178] gave an IC50 greater than 100 nM.
Regarding `O=C(NCc1ccc(F)cc1F)c1cnc(N2CCN(C3CCN(Cc4ccc(F)cc4)CC3)CC2)c(Cl)c1` [compound 58], the IC50 was greater than 100 nM.
The result for `Cc1cc(C(=O)NCc2ccc(F)c(F)c2)cnc1N1CCN(C2CCN(Cc3ccc(Cl)cc3)CC2)CC1` [compound 200] reads greater than 100 nM.
Compound `O=C(NC1CCCC1)c1cnc(N2CCN(C3CCN(Cc4ccc(Br)cc4)CC3)CC2)c(Cl)c1` [compound 37] displayed an IC50 greater than 100 nM.
The result for `O=C(NCc1cccc(F)c1)c1cnc(N2CCN(C3CCN(Cc4ccc(F)cc4)CC3)CC2)c(Cl)c1` [compound 29] reads greater than 100 nM.
As to `O=C(NCCOc1ccccc1)c1cnc(N2CCN(C3CCN(Cc4ccc(F)c(F)c4)CC3)CC2)c(Cl)c1` [compound 35], the half-maximal inhibitory concentration (IC50) is greater than 100 nM.

The record behind these values is patent US7776862B2, “Pyridyl and phenyl substituted piperazine-piperidines with CXCR3 antagonist activity” (Schering Corporation, priority 2005, dated 2010).
